How the values were obtained:
[1] = test system: murine bone marrow-derived macrophages; test: area under cytotoxicity dose-response curve (AUC (% cytotoxicity x dose, relative)); higher = more cytotoxic; settings: duration: 6 days; dose range: 0.13-80 uM, 8 points
In short: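 Using opaque 384-well plates, primary murine bone marrow-derived macrophages were treated for 6 days at 37 °C in 5% CO2 with an 8-point, 2.5-fold dilution series spanning final concentrations of 80–0.13 μM. After CellTiter-Glo (Promega) luminescence readout of viability, percent cytotoxicity was normalised to vehicle and positive control wells. The reported value is the area under the dose–response curve for cytotoxicity, derived in GraphPad Prism version 10.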

[2] = test system: Mycobacterium tuberculosis CDC1551 (intracellular, in murine BMDM); test: area under intracellular growth-inhibition dose-response curve (AUC (% inhibition x dose, relative)); higher = more potent; settings: duration: 6 days; dose range: 0.13-80 uM, 8 points
In short: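 Primary murine bone marrow-derived macrophages in 384-well opaque plates were infected 24 h after seeding with luciferase-expressing M. tuberculosis CDC1551 at multiplicity of infection 1 for 1 h. They were then treated with an 8-dose, 2.5-fold series (final 80–0.13 μM) for 6 days. Growth was read by Bright-Glo luciferin assay and normalised to a reference drug control and the lowest-concentration wells. The value is the area under the growth-inhibition dose–response curve, calculated in GraphPad Prism.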

SMILES	area under cytotoxicity dose-response curve [1]	area under intracellular growth-inhibition dose-response curve [2]
COc1ccc(NC(=O)C(C)NC2=NS(=O)(=O)c3ccccc32)cc1S(N)(=O)=O (stereo unspecified)	8.48	63.2
Cc1ccc2nc(C)c3c(c2c1)SCC3	24.5	79.5
CC[n+]1c(/C=C/N(C)c2ccccc2)n(-c2ccccc2)c2ccc(-c3nc4ccccc4s3)cc21.[I-]	146	162
C/C(=N/NC(=O)c1ccncc1)c1ccc2c(c1)OCO2	13.8	257
CCCNC(=O)OCC12CC3CC(CC(C3)C1)C2	228	237
O=C(NCc1ccco1)c1cc2c(s1)CCCCC2	42.6	255
CN(CC(=O)Nc1ccc(OC(F)(F)F)cc1)C(=O)/C=C/c1cc2c(cc1[N+](=O)[O-])OCO2	< 0	135
O=C(/C=C/c1cccs1)N1CCCC1	3.62	168
CCc1ccc(C(=O)/C=C/c2ccc([N+](=O)[O-])o2)cc1	5.66	142
c1csc(Cc2nn3c(-c4[nH]nc5c4CCC5)nnc3s2)c1	44.4	251
COc1cc(C(=O)Nc2cc(S(=O)(=O)N3CCOCC3)ccc2N2CCOCC2)ccc1OC(F)F	< 0	44.6
CC(NC(=O)c1ccccc1F)c1ccccc1 (stereo unspecified)	53.4	95.2
CCNC(=S)N/N=C(\C)c1ccc(N2CCOCC2)cc1	43.5	164
S=C(Nc1ccc(Oc2ccccc2)cc1)NC1CCCCCC1	210	155
CCN(CC)CCN(C(=O)c1ccc2c(c1)OCCO2)c1nc2cc(C)cc(C)c2s1.Cl	8.98	246
Br.CCCc1cc(-c2nc(-c3ccc(C)cc3)cs2)ccn1	45.6	80.7
CC(=O)c1c(C)[n+]([O-])c2ccccc2[n+]1[O-]	17.5	84.7
O=C(COc1ccccc1)NCc1ccccc1	14.8	163
CCC(=O)N1CCN(c2ccc(NC(=O)c3ccc([N+](=O)[O-])o3)cc2)CC1	3.32	47.9
CNc1nc(SCc2ccc(C)cc2)nc2c1CCCC2	19.6	274
CC(NC(=O)c1ccccc1F)C12C[C@H]3C[C@@H](C1)C[C@@H](C2)C3 (stereo partly specified)	18.2	234

SMILES	area under cytotoxicity dose-response curve [1]	area under intracellular growth-inhibition dose-response curve [2]
CCCCNC(=O)/C=C/c1cccs1	7.87	191
NNC(=O)c1ccncc1	< 0	272
Cc1ccccc1CNC(=O)c1ccccc1	38.3	213
O=C(NCC(c1cccs1)N1CCOCC1)c1cc([N+](=O)[O-])cc([N+](=O)[O-])c1 (stereo unspecified)	20.1	276
COc1ccc(NC(=O)Cn2c(C)cc(=O)c3ccccc32)cc1	< 0	182
Cc1nnc(SCC2=C(C(=O)O)N3C(=O)C(NC(=O)Cn4nc(C(F)F)cc4C)C3SC2)s1 (stereo unspecified)	< 0	215
CCC(=O)NC(=S)Nc1ccc(NC(=O)c2ccco2)cc1	64.5	233
CCCC(=O)NC(=S)Nc1ccc(N2CCN(C(=O)c3cccs3)CC2)cc1	< 0	274
CCN(CC)CCN(C(=O)C1=COCCO1)c1nc2cc(C)cc(C)c2s1.Cl	22.7	227
NC(=S)N/N=C/c1c[nH]c2ccccc12	35.6	231
O=C(NCC1CCCCC1)c1ccc(Cl)nc1	2.72	258
COc1ccc(C(=O)C(C)OC(=O)CNC(=O)c2ccco2)cc1 (stereo unspecified)	< 0	166
Cc1c(C)c2cccnc2c2ncccc12	36.7	162
COc1ccc(CN(C)C(=O)COC(=O)c2cc([N+](=O)[O-])ccc2N2CCCC2)c(OC)c1OC	66.2	31
Cl.O=C(CCN1CCN(CCO)CC1)N1c2ccccc2Sc2ccc(C(F)(F)F)cc21	75	61.3
CCOC(=O)c1c(-c2ccccc2)nc2ccc(C)cn12	58.7	203
CCCN(CCC)CC(O)Cn1cc(/C=C/C(=O)c2cccs2)c2ccccc21 (stereo unspecified)	2.01	231
S=C(Nc1ccccc1)Nc1ccc(OCc2ccccc2)cc1	< 0	272
O=C(CCCOc1ccc(Br)cc1)NNC(=O)c1ccncc1	24.1	256
CN(C)c1ccc(Nc2ncnc3ccc(Br)cc23)cc1	33.3	121
Cc1ccc(OCCCC(=O)NNC(=O)c2ccncc2)cc1	10.4	268

SMILES	area under cytotoxicity dose-response curve [1]	area under intracellular growth-inhibition dose-response curve [2]
O=C(N/N=C/C=C/c1ccccc1[N+](=O)[O-])c1ccncc1	244	244
Cl.c1ccc(CN2CCC3(CCCc4ccccc43)CC2)cc1	45.5	160
FC(F)(F)c1nnc2ccc(Cl)nn12	62.7	36.2
O=C(N/N=C\c1ccc(Cl)s1)C1COc2ccccc2O1 (stereo unspecified)	2.47	129
COc1ccc(/C=N/NC(=O)c2ccncc2)cc1Cn1nc([N+](=O)[O-])c(Br)c1C	< 0	273
CCC[C@@H](CN1CCC[C@H]1CN1C(N)=NC[C@@H]1Cc1ccccc1)N1C[C@@H](Cc2ccccc2)N(CCCC2CCCC2)C1=N	52.7	200
CCOc1ccccc1NC(=O)c1ccc2[nH]c(C)c(C)c2c1	6.53	192
CCOc1ccc(-c2cnc(NCc3cccc4ccccc34)n2CCOC)cc1.O=C(O)C(=O)O	23.1	66.2
FC(F)(Cl)c1nnc2ccc(Cl)nn12	26.5	126
O=C(NC1CCCCC1)c1ccc2c(c1)OCO2	88.5	125
O=C(/C=C/c1cccs1)NCc1ccccc1	10.6	217
Cc1ccc2nc(-c3ccc(NC(=S)NC(=O)C(C)C)cc3)sc2c1	32.6	174
CCCCN(C(=O)CSc1nnc(-c2ccccc2)o1)c1c(N)n(CCC)c(=O)[nH]c1=O	< 0	65.6
O=C(NCCc1ccc(Cl)cc1)c1ccc(CNc2c(N3CCOCC3)c(=O)c2=O)cc1	< 0	162
O=C(NCc1ccccc1F)c1ccc2c(c1)OCO2	87.2	79.5
CSc1nsc(SCC(=O)N2CCCCC2)n1	59	93.5
N=c1c2c(-c3ccccc3)c(-c3ccccc3)n(Cc3ccccc3)c2ncn1CCCn1ccnc1	49.3	48.2
O=C(NC12CC3CC(CC(C3)C1)C2)c1ccc(Br)o1	< 0	171
Cc1cccc(OCCCC(=O)NNC(=O)c2ccncc2)c1	< 0	224
Cc1ccc(C(=O)N2CCCC2)cc1Br	8.65	166
COc1ccc(CCNC(=S)Nc2ccccc2)cc1	78.8	134

Source: the supplement of paper PMC11997997
